According to ChEMBL document CHEMBL1201862, “PubChem BioAssay data set” (2004):
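Growth conditions: 96-well plates. Treatment: test compound, 48 hours, 5 concentrations. Analysis: linear interpolation between bracketing concentrations; unreached endpoints set to highest concentration. GI50 is the concentration that inhibits growth by half.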 Active and inactive are the calls of the source. Cut-off read from the data, not from the text of the source: active = GI50 up to about 1.1 µM and inactive = higher.

How the values were obtained:
Experiment in all cases: NCI-60 cell line screen, 48 h
OVCAR-3 = tested on: OVCAR-3
HCT-116 = tested on: HCT-116
IGROV-1 = tested on: IGROV-1
SK-OV-3 = tested on: SK-OV-3
NCI-H522 = tested on: NCI-H522
KM-20L2 = tested on: KM-20L2
HT-29 = tested on: HT-29
SF-268 = tested on: SF-268
CAKI-1 = tested on: CAKI-1
NCI-H226 = tested on: NCI-H226
SF-295 = tested on: SF-295
M19-MEL = tested on: M19-MEL
DLD-1 = tested on: DLD-1
SNB-19 = tested on: SNB-19
XF498 = tested on: XF498
DMS-114 = tested on: DMS-114
786-0 = tested on: 786-0
CCRF-CEM = tested on: CCRF-CEM
SK-MEL-2 = tested on: SK-MEL-2
UACC-257 = tested on: UACC-257
A549 = tested on: A549
K562 = tested on: K562
A498 = tested on: A498
SW-620 = tested on: SW-620
SNB-75 = tested on: SNB-75
EKVX = tested on: EKVX
TK-10 = tested on: TK-10
HOP-18 = tested on: HOP-18
SK-MEL-5 = tested on: SK-MEL-5
OVCAR-4 = tested on: OVCAR-4
ACHN = tested on: ACHN
OVCAR-5 = tested on: OVCAR-5
M14 = tested on: M14
RXF 393 = tested on: RXF 393
Malme-3M = tested on: Malme-3M
OVCAR-8 = tested on: OVCAR-8
DMS-273 = tested on: DMS-273
NCI-H23 = tested on: NCI-H23
UO-31 = tested on: UO-31
COLO 205 = tested on: COLO 205
HL-60 = tested on: HL-60
SR = tested on: SR
U-251 = tested on: U-251
SN12C = tested on: SN12C
LOX IMVI = tested on: LOX IMVI
LXFL 529 = tested on: LXFL 529
UACC-62 = tested on: UACC-62
NCI-H460 = tested on: NCI-H460
SK-MEL-28 = tested on: SK-MEL-28
KM12 = tested on: KM12
MOLT-4 = tested on: MOLT-4
HCT-15 = tested on: HCT-15
HCC 2998 = tested on: HCC 2998
HOP-62 = tested on: HOP-62
SNB-78 = tested on: SNB-78
SF-539 = tested on: SF-539
HOP-92 = tested on: HOP-92
RPMI-8226 = tested on: RPMI-8226

COC(=O)c1ccccc1N(C(=O)c1ccccc1)c1ccccc1C
GI50 (OVCAR-3): 34.6 µM (inactive)
GI50 (HCT-116): 56.8 µM (inactive)
GI50 (IGROV-1): 76.6 µM (inactive)
GI50 (SK-OV-3): 24.3 µM (inactive)
GI50 (NCI-H522): 30.7 µM (inactive)
GI50 (KM-20L2): 73.8 µM (inactive)
GI50 (HT-29): 39.4 µM (inactive)
GI50 (SF-268): > 100 µM (inactive)
GI50 (CAKI-1): 34.4 µM (inactive)
GI50 (NCI-H226): 74.3 µM (inactive)
GI50 (SF-295): 44.2 µM (inactive)
GI50 (M19-MEL): 48.2 µM (inactive)
GI50 (DLD-1): 43 µM (inactive)
GI50 (SNB-19): > 100 µM (inactive)
GI50 (XF498): 22.7 µM (inactive)
GI50 (DMS-114): 38.6 µM (inactive)
GI50 (786-0): 50 µM (inactive)
GI50 (CCRF-CEM): 27.3 µM (inactive)
GI50 (SK-MEL-2): 45 µM (inactive)
GI50 (UACC-257): 39.2 µM (inactive)
GI50 (A549): 61.9 µM (inactive)
GI50 (K562): 41.1 µM (inactive)
GI50 (A498): 27.5 µM (inactive)
GI50 (SW-620): 59.8 µM (inactive)
GI50 (SNB-75): > 100 µM (inactive)
GI50 (EKVX): 53.2 µM (inactive)
GI50 (TK-10): 41.6 µM (inactive)
GI50 (HOP-18): 41.2 µM (inactive)
GI50 (SK-MEL-5): 30.8 µM (inactive)
GI50 (OVCAR-4): 44.2 µM (inactive)
GI50 (ACHN): 53.6 µM (inactive)
GI50 (OVCAR-5): > 100 µM (inactive)
GI50 (M14): 24 µM (inactive)
GI50 (RXF 393): 30.7 µM (inactive)
GI50 (Malme-3M): 36.3 µM (inactive)
GI50 (OVCAR-8): 37.5 µM (inactive)
GI50 (DMS-273): 47.1 µM (inactive)
GI50 (NCI-H23): 32.1 µM (inactive)
GI50 (UO-31): 24.8 µM (inactive)
GI50 (COLO 205): 26 µM (inactive)
GI50 (HL-60): 19.5 µM (inactive)
GI50 (SR): 28.2 µM (inactive)
GI50 (U-251): 48.2 µM (inactive)
GI50 (SN12C): > 100 µM (inactive)
GI50 (LOX IMVI): 48.1 µM (inactive)
GI50 (LXFL 529): 85.5 µM (inactive)
GI50 (UACC-62): 93.8 µM (inactive)
GI50 (NCI-H460): 29.8 µM (inactive)
GI50 (SK-MEL-28): > 100 µM (inactive)
GI50 (KM12): 32.7 µM (inactive)
GI50 (MOLT-4): 22.4 µM (inactive)
GI50 (HCT-15): 38.5 µM
GI50 (HCC 2998): 60 µM (inactive)
GI50 (HOP-62): > 100 µM (inactive)

CC1=CCC23C(C1)OC(Br)(C=CC2(C)O)C3(C)C (stereo unspecified)
GI50 (HCT-116): > 100 µM (inactive)
GI50 (IGROV-1): > 100 µM (inactive)
GI50 (HT-29): > 100 µM (inactive)
GI50 (SF-268): > 100 µM (inactive)
GI50 (CAKI-1): > 100 µM (inactive)
GI50 (NCI-H226): > 100 µM (inactive)
GI50 (SF-295): > 100 µM (inactive)
GI50 (M19-MEL): > 100 µM (inactive)
GI50 (DLD-1): > 100 µM (inactive)
GI50 (XF498): > 100 µM (inactive)
GI50 (DMS-114): > 100 µM (inactive)
GI50 (786-0): > 100 µM (inactive)
GI50 (CCRF-CEM): > 100 µM (inactive)
GI50 (SK-MEL-2): > 100 µM (inactive)
GI50 (UACC-257): > 100 µM (inactive)
GI50 (A549): > 100 µM (inactive)
GI50 (K562): > 100 µM (inactive)
GI50 (A498): > 100 µM (inactive)
GI50 (SW-620): > 100 µM (inactive)
GI50 (SNB-75): > 100 µM (inactive)
GI50 (EKVX): > 100 µM (inactive)
GI50 (TK-10): > 100 µM (inactive)
GI50 (HOP-18): > 100 µM (inactive)
GI50 (SNB-78): > 100 µM (inactive)
GI50 (SK-MEL-5): > 100 µM (inactive)
GI50 (OVCAR-4): > 100 µM (inactive)
GI50 (ACHN): > 100 µM (inactive)
GI50 (OVCAR-5): > 100 µM (inactive)
GI50 (Malme-3M): > 100 µM (inactive)
GI50 (OVCAR-8): > 100 µM (inactive)
GI50 (DMS-273): > 100 µM (inactive)
GI50 (SF-539): > 100 µM (inactive)
GI50 (NCI-H23): > 100 µM (inactive)
GI50 (COLO 205): > 100 µM (inactive)
GI50 (HL-60): > 100 µM (inactive)
GI50 (HOP-92): > 100 µM (inactive)
GI50 (SN12C): > 100 µM (inactive)
GI50 (LOX IMVI): > 100 µM (inactive)
GI50 (UACC-62): > 100 µM (inactive)
GI50 (NCI-H460): > 100 µM (inactive)
GI50 (SK-MEL-28): > 100 µM (inactive)
GI50 (KM12): > 100 µM (inactive)
GI50 (HCC 2998): > 100 µM (inactive)

Cc1cc([N+](=O)[O-])c(C)c2c1[nH]c1ccc(O)cc12
GI50 (OVCAR-3): 60.4 µM (inactive)
GI50 (HCT-116): > 100 µM (inactive)
GI50 (NCI-H522): > 10 µM (inactive)
GI50 (HT-29): > 100 µM (inactive)
GI50 (SF-268): > 100 µM (inactive)
GI50 (CAKI-1): > 100 µM (inactive)
GI50 (NCI-H226): > 100 µM (inactive)
GI50 (SF-295): > 100 µM (inactive)
GI50 (M19-MEL): > 100 µM (inactive)
GI50 (DLD-1): 16.8 µM (inactive)
GI50 (SNB-19): > 100 µM (inactive)
GI50 (XF498): > 100 µM (inactive)
GI50 (DMS-114): 66.4 µM (inactive)
GI50 (786-0): 39.4 µM (inactive)
GI50 (CCRF-CEM): 23.4 µM (inactive)
GI50 (SK-MEL-2): > 100 µM (inactive)
GI50 (UACC-257): > 100 µM (inactive)
GI50 (RPMI-8226): 11.1 µM (inactive)
GI50 (A549): > 100 µM (inactive)
GI50 (K562): 45.8 µM (inactive)
GI50 (SW-620): 63.1 µM (inactive)
GI50 (SNB-75): > 100 µM (inactive)
GI50 (EKVX): > 100 µM (inactive)
GI50 (TK-10): > 100 µM (inactive)
GI50 (HOP-18): 55.1 µM (inactive)
GI50 (SNB-78): > 100 µM (inactive)
GI50 (SK-MEL-5): > 100 µM (inactive)
GI50 (OVCAR-4): > 100 µM (inactive)
GI50 (ACHN): 99.8 µM (inactive)
GI50 (OVCAR-5): > 100 µM (inactive)
GI50 (M14): > 100 µM (inactive)
GI50 (Malme-3M): > 100 µM (inactive)
GI50 (OVCAR-8): > 100 µM (inactive)
GI50 (DMS-273): > 100 µM (inactive)
GI50 (SF-539): > 100 µM (inactive)
GI50 (NCI-H23): > 100 µM (inactive)
GI50 (UO-31): > 100 µM (inactive)
GI50 (COLO 205): 64.6 µM (inactive)
GI50 (HL-60): 16.2 µM (inactive)
GI50 (SR): 28.8 µM (inactive)
GI50 (SN12C): > 100 µM (inactive)
GI50 (LOX IMVI): 61.5 µM (inactive)
GI50 (NCI-H460): > 100 µM (inactive)
GI50 (SK-MEL-28): > 100 µM (inactive)
GI50 (KM12): > 100 µM (inactive)
GI50 (MOLT-4): 59.2 µM (inactive)
GI50 (HCT-15): 50 µM
GI50 (HCC 2998): > 100 µM (inactive)
GI50 (HOP-62): > 100 µM (inactive)
